{
  "source": "patent US20070074300A1",
  "about": "“Sialidase inhibitors for the treatment of cardiovascular disease” (priority 2005, published 2007)",
  "key": {"[1]": {"tested_on": "differentiated human THP-1 macrophages", "test": "IL-6 production by differentiated THP-1 macrophages in culture (ELISA)", "type": "cell-based", "conditions": "differentiated THP-1 macrophages incubated 3 days with varying concentrations; IL-6 in culture supernatant by ELISA; FIG. 7", "description": "The effects of a sialidase inhibitor, N-acetyl-2,3-dehydro-2-deoxyneuraminic acid (ADDN), on the production of the inflammatory cytokine interleukin-6 (IL-6) by differentiated human THP-1 macrophages in culture was measured.\nFIG. 7 illustrates that the inhibition of sialidase activity suppresses production of the pro-atherogenic cytokine IL-6 in differentiated THP-1 macrophages. Differentiated THP-1 macrophages were incubated for 3 days with the varying concentrations of the sialidase inhibitor ADDN. Levels of the cytokine IL-6 in samples of the cell culture supernatant were quantified by ELISA. Data are presented as the mean±standard deviation of triplicate experimental groups. (* denotes significant difference, P<0.001)."}, "ApoE KO mice [2]": {"tested_on": "ApoE KO mice", "test": "Serum glucose and serum/lipoprotein cholesterol in apoE KO mice treated with sialidase inhibitor", "type": "in vivo, mouse", "conditions": "vs saline control, FIG. 8", "description": "Control mice received daily injections of saline. Data reveal significant reductions in serum glucose levels, and total and LDL cholesterol. P<0.01.\nPlasma was prepared from heparinized blood collected by cardiac puncture (Covey et al 2003). Serum was collected from blood using serum separators (Becton Dickenson). Serum was submitted to the Clinical Diagnostic Laboratory at the McMaster University Medical Centre for analyses of standard metabolic parameters including total cholesterol, LDL cholesterol and glucose. Lipoproteins from plasma were separated by size by fast protein liquid chromatography (FPLC) using an AKTA system (Amersham Biosciences, Inc.) with a Superose 6 HR 10/30 column, as described previously (Covey et al 2003). The total cholesterol content in each fraction was assayed using an enzymatic assay kit from Thermo DMA. Lipoproteins (VLDL, LDL and HDL) from human plasma were run as controls to calibrate the column.\nThe inhibitor, N-Acetyl-2,3-dehydro-2-deoxyneuraminic acid (ADDN), was obtained from Sigma Chemical Company (St. Louis, Mo.). ApoE KO mice were ˜6 weeks of age at the beginning of the study. The mice were randomized into 2 groups of 6. The control group received daily i.p injections of 0.9% saline (0.1 ml/day for […]). The experimental group received daily i.p. injections of 0.9% saline (0.1 ml per day) containing either 0.1 or 0.4 ug ADDN for 7 days. Serum was collected on day 7 and serum glucose, total cholesterol and LDL levels were measured."}, "ApoE KO mice [3]": {"tested_on": "ApoE KO mice", "test": "Atherosclerosis (aortic sinus lesion area and volume) in apoE KO mice treated with sialidase inhibitor", "type": "in vivo, mouse", "conditions": "male apoE KO mice aged 7 months, mini-osmotic pump 1.5 micro-g/day for 6 weeks, vs saline", "description": "FIG. 9 illustrate a morphometric evaluation of atherosclerotic lesion area (A) and volume (B) in the aortic sinus of male ApoE−/− mice treated for 6 weeks with the sialic acid inhibitor ADDN (N-Acetyl-2,3-dehydro-2-deoxyneuraminic acid). Mice aged 7 months were treated for 6 weeks with either saline or the sialic acid inhibitor ADDN. (n=8 in each case). A third group of mice was euthanized at the beginning of the experiment so that the level of atherosclerosis at the time that treatment was initiated could be measured (Base, n=9). Atherosclerotic lesion cross sectional areas in the aortic root (A) and lesion volumes (B) were measured. Values are the averages ±standard error of the mean. Lesion progression was reduced in ADDN-treated mice compared to saline controls. […]\nFor diet-induced atherosclerosis, mice were fed (beginning four weeks after transplantation) with a high fat, Western-type diet (Covey et al 2003) obtained from Dyets, Inc. (Bethlehem Pa.). […] Atherosclerotic plaque cross sectional area was measured by morphometry using Axiovision software (Carl Zeiss Canada, Inc). A total of eight sections lying at 0.1 mm intervals along the aortic sinus were analyzed for each mouse. […] The volume of atherosclerotic plaque was therefore calculated as the sum of the volumes determined for each 0.1 mm portion of the aortic sinus. […]"}, "[4]": {"conditions": "daily i.p. 0.1 or 0.4 ug for 7 days"}},
  "data": [
    {"smiles": "CC(=O)N[C@H]1[C@H]([C@H](O)[C@H](O)CO)OC(C(=O)O)=C[C@@H]1O", "note": "[ADDN, N-Acetyl-2,3-dehydro-2-deoxyneuraminic acid]", "values": [
      {"measurement": "production of the inflammatory cytokine IL-6", "setting": "[1]", "result": "reduced production of IL-6"},
      {"measurement": "LDL cholesterol", "setting": "ApoE KO mice [2]; [4]", "result": "significantly less"},
      {"measurement": "serum glucose", "setting": "ApoE KO mice [2]; [4]", "result": "significantly decreased"},
      {"measurement": "serum total cholesterol", "setting": "ApoE KO mice [2]; [4]", "result": "significantly less"},
      {"measurement": "HDL cholesterol", "setting": "ApoE KO mice [2]; daily i.p. injections", "result": "significantly less"},
      {"measurement": "growth of atherosclerotic plaque cross sectional area from baseline", "setting": "ApoE KO mice [3]; aortic root, FIG. 9A", "result": "substantially inhibited"},
      {"measurement": "growth of atherosclerotic plaque volume from baseline", "setting": "ApoE KO mice [3]; aortic sinus, FIG. 9B", "result": "substantially inhibited"}
    ]}
  ]
}
